Test results from publication PMC10766610, “DCAF1-based PROTACs with activity against clinically validated targets overcoming intrinsic- and acquired-degrader resistance” (Nature Communications, 2024).

Target: BTK (Homo sapiens, UniProt Q06187)
Experiment: Immunoblot of BTK in TMD8 WT and CRBN (CBt) resistant cells
Assay type: cell-based
Parameters: performed with full-length BTK and endogenous DCAF1; expressed in transfected cells; host or cells: TMD8 cells, lentiviral, blasticidin-selected (TMD8 BTK-GFP/mCh)
Conditions: 24 h; 0.1 µM CBt, 1 µM DBt-10
Protocol: Whole cell lysates for immunoblotting were prepared by pelleting cells at 4 °C (300 g) for 3 min. Cell pellets were then washed 1x with PBS and resuspended in RIPA lysis buffer (VWR, cat # 97063-270) supplemented with protease (Thermo Scientific, cat # A32955) and phosphatase (Thermo Scientific, cat # A32957) inhibitor tablets. Lysates were clarified at 16,000 × g for 15 min at 4 °C prior to quantification by Lowry assay (Bio-Rad cat # 5000113 and cat # 5000114). Whole-cell lysates were loaded into 4–20% Criterion TGX Precast 18 well gels (Bio-Rad, cat # 5671094) and separated by electrophoreses at 120 V for 1 h. The gels were transferred to a nitrocellulose membrane using the Trans-Blot Turbo (Bio-Rad) for 7 min and then blocked for 1 h at room temperature in Odyssey blocking buffer (LICOR Biosciences, cat # 927-50000). Membranes were probed with the appropriate primary antibodies (diluted 1:1000) overnight at 4 °C in 20% Odyssey blocking buffer in 1x TBST. Membranes were washed three times with 1x TBST (5 min per wash), and then incubated with IRDye goat anti-mouse (LICOR, cat # 926-32210) or goat anti-rabbit (LICOR, cat # 926-32211) secondary antibody diluted 1:10,000 in 20% Odyssey blocking buffer for 1 h at room temperature. After three 5-min washes with 1x TBST, the immunoblots were visualized using the ODYSSEY Infrared Imaging System (LICOR). […]

BTK, sequence (Q06187 2-659 limits assumed): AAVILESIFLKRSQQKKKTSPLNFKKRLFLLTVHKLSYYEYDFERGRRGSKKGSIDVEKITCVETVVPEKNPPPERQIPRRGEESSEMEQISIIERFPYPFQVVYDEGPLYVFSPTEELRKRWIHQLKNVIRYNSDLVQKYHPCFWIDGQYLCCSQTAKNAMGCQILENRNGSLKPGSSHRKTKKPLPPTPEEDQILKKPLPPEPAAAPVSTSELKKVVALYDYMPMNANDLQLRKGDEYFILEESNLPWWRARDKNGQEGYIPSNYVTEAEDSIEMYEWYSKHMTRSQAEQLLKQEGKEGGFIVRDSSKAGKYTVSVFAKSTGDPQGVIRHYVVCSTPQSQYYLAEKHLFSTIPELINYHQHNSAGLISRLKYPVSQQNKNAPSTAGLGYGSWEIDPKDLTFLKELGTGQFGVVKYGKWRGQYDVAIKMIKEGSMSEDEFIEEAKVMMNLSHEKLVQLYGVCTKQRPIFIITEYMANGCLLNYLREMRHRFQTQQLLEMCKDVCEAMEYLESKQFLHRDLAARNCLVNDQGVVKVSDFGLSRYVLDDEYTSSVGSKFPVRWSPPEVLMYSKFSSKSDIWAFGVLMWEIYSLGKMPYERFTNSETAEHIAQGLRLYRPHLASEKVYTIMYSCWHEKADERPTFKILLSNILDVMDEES

COc1ccc(C(=O)N2CCC3(CCN(CCc4ccc(-c5cc6c(-c7cc(F)cc(NC(=O)c8ccc(C(C)(C)O)cc8F)c7C)ncnc6[nH]5)cc4)CC3)CC2)cc1N1CCC(=O)NC1=O [CBt, reference compound]
BTK degradation in TMD8 CBt sensitive (WT) vs resistant cells: BTK degradation only in the WT but not in the CBt-resistant TMD8 cells
